Results from publication PMC6199744, “Development of Chemical Proteomics for the Folateome and Analysis of the Kinetoplastid Folateome” (ACS Infectious Diseases, 2018).
Where two headings read alike, the source gives them in different places.

How the values were obtained:
Type in all cases: binding
[1] = target: T1, HeLa cell extract proteins (Homo sapiens, UniProt Q63HN8)
T1 construct: endogenous in cells; host or cells: HeLa cell extract

[2] = target: T2, HeLa cell extract proteins (Homo sapiens, UniProt P38646)
T2 construct: endogenous in cells; host or cells: HeLa cell extract
T2 sequence (P38646 47-679): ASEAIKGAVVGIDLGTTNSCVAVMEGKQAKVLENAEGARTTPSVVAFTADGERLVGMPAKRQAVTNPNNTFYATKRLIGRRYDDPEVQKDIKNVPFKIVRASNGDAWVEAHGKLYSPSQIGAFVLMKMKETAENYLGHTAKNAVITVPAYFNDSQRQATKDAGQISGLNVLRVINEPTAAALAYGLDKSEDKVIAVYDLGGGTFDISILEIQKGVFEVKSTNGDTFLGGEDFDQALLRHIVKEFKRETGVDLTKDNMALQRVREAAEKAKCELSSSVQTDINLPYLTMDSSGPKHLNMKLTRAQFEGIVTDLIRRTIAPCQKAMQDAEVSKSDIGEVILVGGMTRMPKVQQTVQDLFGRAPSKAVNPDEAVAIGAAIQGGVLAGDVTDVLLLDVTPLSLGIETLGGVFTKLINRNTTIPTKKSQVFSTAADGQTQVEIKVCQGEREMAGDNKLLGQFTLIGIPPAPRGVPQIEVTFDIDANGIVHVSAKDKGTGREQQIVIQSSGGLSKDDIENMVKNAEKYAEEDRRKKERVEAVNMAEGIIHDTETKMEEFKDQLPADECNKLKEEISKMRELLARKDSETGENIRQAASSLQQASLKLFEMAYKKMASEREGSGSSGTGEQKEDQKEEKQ

[3] = target: T3, HeLa cell extract proteins (Homo sapiens, UniProt Q15436)
T3 construct: endogenous in cells; host or cells: HeLa cell extract
T3 sequence (Q15436 whole entry): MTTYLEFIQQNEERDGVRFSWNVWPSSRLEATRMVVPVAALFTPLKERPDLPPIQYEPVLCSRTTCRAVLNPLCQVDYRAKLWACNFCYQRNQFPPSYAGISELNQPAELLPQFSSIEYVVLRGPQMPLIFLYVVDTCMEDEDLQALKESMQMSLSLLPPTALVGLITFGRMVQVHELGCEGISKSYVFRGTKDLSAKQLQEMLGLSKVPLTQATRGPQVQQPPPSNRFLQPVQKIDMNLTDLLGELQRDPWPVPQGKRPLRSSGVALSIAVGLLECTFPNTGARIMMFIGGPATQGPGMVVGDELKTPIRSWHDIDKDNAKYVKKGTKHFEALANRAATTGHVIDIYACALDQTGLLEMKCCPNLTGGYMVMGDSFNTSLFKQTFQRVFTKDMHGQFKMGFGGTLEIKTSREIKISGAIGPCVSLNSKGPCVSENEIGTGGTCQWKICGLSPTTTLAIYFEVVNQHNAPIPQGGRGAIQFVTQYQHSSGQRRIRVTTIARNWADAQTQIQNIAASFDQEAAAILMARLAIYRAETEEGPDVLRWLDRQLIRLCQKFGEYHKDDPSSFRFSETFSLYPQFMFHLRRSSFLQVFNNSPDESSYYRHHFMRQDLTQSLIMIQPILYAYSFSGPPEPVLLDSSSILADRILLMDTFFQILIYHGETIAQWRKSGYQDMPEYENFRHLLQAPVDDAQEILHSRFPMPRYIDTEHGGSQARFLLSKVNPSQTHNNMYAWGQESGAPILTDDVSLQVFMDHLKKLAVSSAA

[4] = target: T4, HeLa cell extract proteins (Homo sapiens, UniProt Q15120)
T4 construct: endogenous in cells; host or cells: HeLa cell extract
T4 sequence (Q15120 whole entry): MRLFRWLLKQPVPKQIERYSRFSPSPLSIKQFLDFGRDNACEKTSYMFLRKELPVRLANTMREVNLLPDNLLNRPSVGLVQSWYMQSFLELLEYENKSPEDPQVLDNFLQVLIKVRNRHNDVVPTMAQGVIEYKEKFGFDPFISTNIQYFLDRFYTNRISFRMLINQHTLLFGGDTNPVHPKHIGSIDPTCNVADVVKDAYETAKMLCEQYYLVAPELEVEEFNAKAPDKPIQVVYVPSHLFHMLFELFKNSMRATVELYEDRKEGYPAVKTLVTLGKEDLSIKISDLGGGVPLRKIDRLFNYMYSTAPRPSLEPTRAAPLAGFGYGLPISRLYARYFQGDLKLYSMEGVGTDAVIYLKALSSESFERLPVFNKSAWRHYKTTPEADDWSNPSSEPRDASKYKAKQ

[5] = target: T5, HeLa cell extract proteins (Homo sapiens, UniProt P11940)
T5 construct: endogenous in cells; host or cells: HeLa cell extract
T5 sequence (P11940 whole entry): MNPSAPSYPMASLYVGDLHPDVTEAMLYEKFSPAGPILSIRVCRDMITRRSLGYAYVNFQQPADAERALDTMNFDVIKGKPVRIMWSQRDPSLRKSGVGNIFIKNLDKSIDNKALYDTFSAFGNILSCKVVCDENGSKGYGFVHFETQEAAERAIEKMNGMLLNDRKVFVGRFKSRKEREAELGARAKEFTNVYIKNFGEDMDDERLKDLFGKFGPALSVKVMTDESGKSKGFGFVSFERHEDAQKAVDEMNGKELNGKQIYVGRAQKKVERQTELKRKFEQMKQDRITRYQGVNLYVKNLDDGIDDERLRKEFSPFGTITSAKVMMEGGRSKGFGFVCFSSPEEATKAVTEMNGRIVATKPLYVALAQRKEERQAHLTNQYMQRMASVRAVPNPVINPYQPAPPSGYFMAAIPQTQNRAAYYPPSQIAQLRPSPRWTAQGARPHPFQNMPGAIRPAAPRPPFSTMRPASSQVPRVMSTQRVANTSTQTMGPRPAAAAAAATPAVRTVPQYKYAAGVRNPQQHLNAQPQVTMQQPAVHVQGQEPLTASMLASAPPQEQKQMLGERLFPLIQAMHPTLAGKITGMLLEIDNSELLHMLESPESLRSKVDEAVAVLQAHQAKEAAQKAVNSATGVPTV

[6] = target: T6, HeLa cell extract proteins (Homo sapiens, UniProt Q99873)
T6 construct: endogenous in cells; host or cells: HeLa cell extract

[7] = target: T7, HeLa cell extract proteins (Homo sapiens, UniProt Q14203)
T7 construct: endogenous in cells; host or cells: HeLa cell extract
T7 sequence (Q14203 whole entry): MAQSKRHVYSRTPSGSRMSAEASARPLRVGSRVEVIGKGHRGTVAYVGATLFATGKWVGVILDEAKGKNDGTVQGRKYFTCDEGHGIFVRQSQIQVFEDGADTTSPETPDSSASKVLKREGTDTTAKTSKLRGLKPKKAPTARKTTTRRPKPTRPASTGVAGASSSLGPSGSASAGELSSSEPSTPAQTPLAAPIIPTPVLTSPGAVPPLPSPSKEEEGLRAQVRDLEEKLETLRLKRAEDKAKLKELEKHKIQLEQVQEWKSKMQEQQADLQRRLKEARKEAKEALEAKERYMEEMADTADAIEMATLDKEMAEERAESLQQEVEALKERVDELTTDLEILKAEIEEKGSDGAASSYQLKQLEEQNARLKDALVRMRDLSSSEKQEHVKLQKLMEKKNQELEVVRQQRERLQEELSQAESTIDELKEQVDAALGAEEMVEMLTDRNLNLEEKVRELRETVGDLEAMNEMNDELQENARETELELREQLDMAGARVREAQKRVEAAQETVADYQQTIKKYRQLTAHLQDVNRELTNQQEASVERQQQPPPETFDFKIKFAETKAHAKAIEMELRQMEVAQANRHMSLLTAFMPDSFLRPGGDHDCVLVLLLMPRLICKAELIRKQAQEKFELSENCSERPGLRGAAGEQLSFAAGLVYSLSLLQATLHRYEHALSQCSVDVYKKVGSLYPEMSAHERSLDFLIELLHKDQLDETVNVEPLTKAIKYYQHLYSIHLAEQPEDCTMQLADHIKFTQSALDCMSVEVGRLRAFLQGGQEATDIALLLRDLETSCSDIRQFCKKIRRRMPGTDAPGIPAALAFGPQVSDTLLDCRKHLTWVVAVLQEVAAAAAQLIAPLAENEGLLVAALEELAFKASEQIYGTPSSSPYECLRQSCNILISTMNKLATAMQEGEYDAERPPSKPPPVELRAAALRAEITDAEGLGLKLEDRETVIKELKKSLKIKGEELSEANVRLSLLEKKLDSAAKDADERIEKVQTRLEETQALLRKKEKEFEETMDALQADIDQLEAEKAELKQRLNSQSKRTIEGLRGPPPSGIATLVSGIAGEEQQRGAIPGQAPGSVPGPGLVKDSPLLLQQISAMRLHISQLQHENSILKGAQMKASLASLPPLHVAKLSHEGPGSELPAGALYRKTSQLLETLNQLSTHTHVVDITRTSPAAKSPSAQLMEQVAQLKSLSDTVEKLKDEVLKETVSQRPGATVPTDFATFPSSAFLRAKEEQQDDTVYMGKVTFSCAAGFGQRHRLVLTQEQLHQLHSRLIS

[8] = target: T8, HeLa cell extract proteins (Homo sapiens, UniProt Q9NX63)
T8 construct: endogenous in cells; host or cells: HeLa cell extract
T8 sequence (Q9NX63 1-227): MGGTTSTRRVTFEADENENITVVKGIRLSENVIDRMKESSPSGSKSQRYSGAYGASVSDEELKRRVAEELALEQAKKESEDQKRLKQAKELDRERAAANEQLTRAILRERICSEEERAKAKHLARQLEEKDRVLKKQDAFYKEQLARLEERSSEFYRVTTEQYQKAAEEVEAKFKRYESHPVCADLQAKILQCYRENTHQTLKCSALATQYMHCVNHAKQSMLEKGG

[9] = target: T9, HeLa cell extract proteins (Homo sapiens, UniProt Q71U36)
T9 construct: endogenous in cells; host or cells: HeLa cell extract
T9 sequence (Q71U36 whole entry): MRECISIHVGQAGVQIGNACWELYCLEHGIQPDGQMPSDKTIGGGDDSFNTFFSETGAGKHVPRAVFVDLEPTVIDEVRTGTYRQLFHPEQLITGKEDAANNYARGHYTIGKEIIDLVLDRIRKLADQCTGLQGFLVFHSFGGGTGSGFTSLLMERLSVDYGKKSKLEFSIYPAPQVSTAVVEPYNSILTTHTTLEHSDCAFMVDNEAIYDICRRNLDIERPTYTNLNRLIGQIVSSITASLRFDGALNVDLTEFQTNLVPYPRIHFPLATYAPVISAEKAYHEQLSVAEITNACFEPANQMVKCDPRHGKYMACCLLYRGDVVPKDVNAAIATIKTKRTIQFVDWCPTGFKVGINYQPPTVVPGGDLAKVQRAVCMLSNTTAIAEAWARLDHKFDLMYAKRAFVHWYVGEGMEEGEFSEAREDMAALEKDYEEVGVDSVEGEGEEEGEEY

[10] = target: T10, HeLa cell extract proteins (Homo sapiens, UniProt P04183)
T10 construct: endogenous in cells; host or cells: HeLa cell extract
T10 sequence (P04183 1-234): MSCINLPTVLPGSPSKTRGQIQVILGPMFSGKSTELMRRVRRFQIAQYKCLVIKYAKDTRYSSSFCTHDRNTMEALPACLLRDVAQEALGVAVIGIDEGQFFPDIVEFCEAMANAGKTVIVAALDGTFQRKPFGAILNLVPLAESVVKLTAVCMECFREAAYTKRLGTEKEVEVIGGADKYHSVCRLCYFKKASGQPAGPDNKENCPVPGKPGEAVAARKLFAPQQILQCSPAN

[11] = target: T11, HeLa cell extract proteins (Homo sapiens, UniProt P62820)
T11 construct: endogenous in cells; host or cells: HeLa cell extract
T11 sequence (P62820 whole entry): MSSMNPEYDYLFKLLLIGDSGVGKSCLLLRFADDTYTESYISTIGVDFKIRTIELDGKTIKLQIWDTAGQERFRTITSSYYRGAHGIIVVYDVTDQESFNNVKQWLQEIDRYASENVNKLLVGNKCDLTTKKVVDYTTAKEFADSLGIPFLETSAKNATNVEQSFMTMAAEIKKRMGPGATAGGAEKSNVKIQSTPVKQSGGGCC

[12] = target: T12, HeLa cell extract proteins (Homo sapiens, UniProt P06753)
T12 construct: endogenous in cells; host or cells: HeLa cell extract
T12 sequence (P06753 whole entry): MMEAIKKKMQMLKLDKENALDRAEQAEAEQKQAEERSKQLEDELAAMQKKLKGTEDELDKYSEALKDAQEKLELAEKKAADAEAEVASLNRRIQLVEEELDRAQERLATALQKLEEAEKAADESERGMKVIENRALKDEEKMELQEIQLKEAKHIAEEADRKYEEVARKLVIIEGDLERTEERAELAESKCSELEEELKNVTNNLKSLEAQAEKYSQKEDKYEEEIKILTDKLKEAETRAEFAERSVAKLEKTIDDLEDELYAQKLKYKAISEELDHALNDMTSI

[13] = target: T13, HeLa cell extract proteins (Homo sapiens, UniProt O95619)
T13 construct: endogenous in cells; host or cells: HeLa cell extract
T13 sequence (O95619 whole entry): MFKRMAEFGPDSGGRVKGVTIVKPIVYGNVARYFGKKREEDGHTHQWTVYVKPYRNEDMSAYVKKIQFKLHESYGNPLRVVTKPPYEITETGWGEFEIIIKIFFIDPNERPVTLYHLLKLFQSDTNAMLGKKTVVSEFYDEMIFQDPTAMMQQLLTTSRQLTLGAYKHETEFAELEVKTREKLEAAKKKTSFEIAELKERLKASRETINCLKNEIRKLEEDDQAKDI

[14] = target: T14, HeLa cell extract proteins (Homo sapiens, UniProt P49411)
T14 construct: endogenous in cells; host or cells: HeLa cell extract

[15] = target: T15, HeLa cell extract proteins (Homo sapiens, UniProt P49748)
T15 construct: endogenous in cells; host or cells: HeLa cell extract
T15 sequence (P49748 41-655): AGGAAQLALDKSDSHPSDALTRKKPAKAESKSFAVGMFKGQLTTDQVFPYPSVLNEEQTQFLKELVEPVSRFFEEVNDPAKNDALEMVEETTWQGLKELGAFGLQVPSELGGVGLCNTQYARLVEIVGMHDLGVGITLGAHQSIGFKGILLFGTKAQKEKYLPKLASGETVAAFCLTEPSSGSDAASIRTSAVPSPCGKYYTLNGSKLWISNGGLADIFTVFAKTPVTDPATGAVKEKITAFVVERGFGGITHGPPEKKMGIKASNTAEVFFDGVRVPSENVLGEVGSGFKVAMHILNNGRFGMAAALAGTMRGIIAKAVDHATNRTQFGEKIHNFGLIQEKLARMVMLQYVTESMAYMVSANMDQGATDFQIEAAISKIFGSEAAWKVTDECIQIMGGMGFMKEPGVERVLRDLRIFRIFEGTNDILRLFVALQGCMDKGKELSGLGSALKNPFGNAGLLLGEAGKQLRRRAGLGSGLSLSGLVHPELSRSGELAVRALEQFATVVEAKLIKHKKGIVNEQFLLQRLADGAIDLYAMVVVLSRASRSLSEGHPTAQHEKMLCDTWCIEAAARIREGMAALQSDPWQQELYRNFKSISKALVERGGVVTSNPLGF

[16] = target: T16, HeLa cell extract proteins (Homo sapiens, UniProt P12956)
T16 construct: endogenous in cells; host or cells: HeLa cell extract

[17] = target: T17, HeLa cell extract proteins (Homo sapiens, UniProt P52272)
T17 construct: endogenous in cells; host or cells: HeLa cell extract
T17 sequence (P52272 1-730): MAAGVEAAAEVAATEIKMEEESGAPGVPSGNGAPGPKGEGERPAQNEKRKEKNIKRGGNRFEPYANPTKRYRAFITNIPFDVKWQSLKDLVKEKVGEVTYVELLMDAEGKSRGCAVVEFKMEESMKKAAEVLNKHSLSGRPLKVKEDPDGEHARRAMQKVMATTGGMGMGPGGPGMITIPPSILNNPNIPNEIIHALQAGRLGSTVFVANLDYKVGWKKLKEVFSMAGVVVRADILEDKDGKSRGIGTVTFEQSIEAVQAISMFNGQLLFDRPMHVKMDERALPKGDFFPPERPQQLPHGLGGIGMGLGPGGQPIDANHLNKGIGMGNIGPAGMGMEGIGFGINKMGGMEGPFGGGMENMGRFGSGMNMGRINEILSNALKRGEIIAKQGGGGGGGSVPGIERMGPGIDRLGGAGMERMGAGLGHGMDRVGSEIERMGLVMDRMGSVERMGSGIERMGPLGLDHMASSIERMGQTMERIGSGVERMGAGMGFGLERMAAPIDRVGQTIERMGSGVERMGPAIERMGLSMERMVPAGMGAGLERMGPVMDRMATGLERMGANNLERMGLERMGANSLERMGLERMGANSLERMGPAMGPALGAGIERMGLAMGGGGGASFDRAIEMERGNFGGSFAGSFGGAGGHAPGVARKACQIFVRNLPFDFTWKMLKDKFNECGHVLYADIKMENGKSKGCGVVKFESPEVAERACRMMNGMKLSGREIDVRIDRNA

[18] = HeLa, protein TK1 (29 KDA PROTEIN)

Compound	fold changes relative to vehicle control ([1]; HeLa, protein KIAA1618)	fold changes relative to vehicle control ([2]; HeLa, captured protein HSPA9)	fold changes relative to vehicle control ([3]; HeLa, protein SEC23A)	fold changes relative to vehicle control ([4]; HeLa, protein PDK3)	fold changes relative to vehicle control ([5]; HeLa, protein PABPC1)	fold changes relative to vehicle control ([7]; protein DCTN1, HeLa)	fold changes relative to vehicle control ([9]; HeLa, protein TUBA1A)	fold changes relative to vehicle control ([12]; protein TPM3, HeLa)	fold changes relative to vehicle control ([14]; protein TUFM, HeLa)	fold changes relative to vehicle control ([1]; protein KIAA1618, HeLa)	fold changes relative to vehicle control ([2]; protein HSPA9, HeLa)	fold changes relative to vehicle control ([4]; captured protein PDK3, HeLa)	fold changes relative to vehicle control ([6]; protein PRMT1, HeLa)	fold changes relative to vehicle control ([8]; captured protein CHCHD3, HeLa)	fold changes relative to vehicle control ([10]; protein TK1, HeLa)	fold changes relative to vehicle control ([11]; captured protein RAB1A, HeLa)	fold changes relative to vehicle control ([13]; HeLa, protein YEATS4)	fold changes relative to vehicle control ([15]; protein ACADVL, HeLa)	fold changes relative to vehicle control ([16]; protein XRCC6, HeLa)	fold changes relative to vehicle control ([17]; HeLa, protein HNRNPM)	other results
Nc1nc2c(c(=O)[nH]1)N(C=O)C(CNc1ccc(C(=O)N[C@@H](CCC(=O)O)C(=O)O)cc1)CN2 (stereo partly drawn) [LEU, leucovorin]	0.87	1.05	0.94	0.93	0.98	1.14	0.95	0.93	0.93	–	–	–	–	–	–	–	–	–	–	–	fold changes relative to vehicle control ([6]; HeLa, protein PRMT1): 0.94; fold changes relative to vehicle control ([8]; HeLa, protein CHCHD3): 0.92; fold changes relative to vehicle control [10, 18]: 0.97; fold changes relative to vehicle control ([11]; HeLa, protein RAB1A): 1.2; fold changes relative to vehicle control ([13]; HeLa, captured protein YEATS4): 1.09; fold changes relative to vehicle control ([15]; HeLa, protein ACADVL): 0.98; fold changes relative to vehicle control ([16]; HeLa, protein XRCC6): 0.96; fold changes relative to vehicle control ([17]; HeLa, captured protein HNRNPM): 0.83
Nc1nc2[nH]cc(CCc3ccc(C(=O)N[C@@H](CCC(=O)O)C(=O)O)cc3)c2c(=O)[nH]1 [PTX, pemetrexed]	–	–	–	–	–	–	–	–	–	–	–	–	–	–	–	–	–	–	–	–	fold changes relative to vehicle control [1]: 1.01; fold changes relative to vehicle control [2]: 0.97; fold changes relative to vehicle control [3]: 0.94; fold changes relative to vehicle control [4]: 0.9; fold changes relative to vehicle control [5]: 0.96; fold changes relative to vehicle control [6]: 0.93; fold changes relative to vehicle control [7]: 1.17; fold changes relative to vehicle control [8]: 0.98; fold changes relative to vehicle control [9]: 0.91; fold changes relative to vehicle control [10]: 0.93; fold changes relative to vehicle control [11]: 1.17; fold changes relative to vehicle control [12]: 0.89; fold changes relative to vehicle control [13]: 0.99; fold changes relative to vehicle control [14]: 0.97; fold changes relative to vehicle control [15]: 1.03; fold changes relative to vehicle control [16]: 1.02; fold changes relative to vehicle control [17]: 0.99
CCCCCCOc1ccc(Cc2cnc(N)nc2N)cc1 [compound 1]	–	–	1.1	–	0.97	1.18	0.95	1.18	1.18	0.98	0.95	1	0.95	0.93	0.96	0.74	1.04	0.96	1.13	1.09	–
CCCCCCOc1cccc(Cc2cnc(N)nc2N)c1 [compound 2]	–	–	1.07	–	1.19	1.27	0.92	2.05	1.68	0.95	1.1	0.49	1.24	1.08	1.16	1.19	0.92	1.29	1.93	1.21	–
Nc1nc2cccc(-c3ccccc3)c2n1Cc1ccc(Cl)c(Cl)c1 [compound 3]	–	–	1.04	–	0.94	1.1	1.06	0.87	0.92	1.04	0.98	0.86	0.93	1.02	1.16	0.91	0.99	0.91	0.92	0.88	–
NCCOCCOCC(=O)Nc1nc2ncc(CNc3ccc(C(=O)NC(CCC(=O)O)C(=O)O)cc3)nc2c(=O)[nH]1 (stereo not drawn) [compound 6]	1.21	0.99	0.89	0.87	0.97	1.32	0.97	1.18	1.07	–	–	–	–	–	–	–	–	–	–	–	fold changes relative to vehicle control ([6]; HeLa, protein PRMT1): 0.95; fold changes relative to vehicle control ([8]; HeLa, protein CHCHD3): 1; fold changes relative to vehicle control [10, 18]: 1.06; fold changes relative to vehicle control ([11]; HeLa, protein RAB1A): 1.21; fold changes relative to vehicle control ([13]; HeLa, captured protein YEATS4): 0.81; fold changes relative to vehicle control ([15]; HeLa, protein ACADVL): 1.22; fold changes relative to vehicle control ([16]; HeLa, protein XRCC6): 1.09; fold changes relative to vehicle control ([17]; HeLa, captured protein HNRNPM): 1.01
